{"source": "patent US11203773B2", "about": "“Designer ribosomes and methods of use thereof for incorporating non-standard amino acids into polypeptides” (Yale University, priority 2016, dated 2021)", "key": {"[1]": {"tested_on": "E. coli strains (BL21 (DE3)) with pUC18 rrnb plasmids", "assay": "Screen of library for sensitivity to erythromycin (growth inhibition, OD600)", "format": "cell-based", "conditions": "6.8 μM erythromycin, E. coli with pUC18 plasmid encoding WT rrnb, 16-18 h", "experimental": "(§3) To screen the resulting E. coli strains for antibiotic resistance, 2 μL of the 15% glycerol stocks prepared above were added to 98 μL of growth assay buffer (LB media (pH 8.35), 100 μg/mL carbenicillin, 1.0 mM IPTG, 6.8 μM erythromycin) in 384-well plates (Corning #3707). […] After 16-18 h, the extent of cell growth inhibition in the presence of antibiotic was determined by measuring the OD600 of each well using a SpectraMax M5 plate reader (Molecular Devices). The antibiotic-dependent inhibition of cell growth in each well was determined using Equation 4: [100−(OD600+A/OD600−A)×100] Equation 4 In this equation, OD600+A represents OD600 of wells containing antibiotic and OD600−A represents OD600 of wells lacking antibiotic."}, "E. coli GlyRS [2]": {"target": "T1, E. coli GlyRS (Escherichia coli, UniProt P00960)", "T1 sequence (P00960 whole entry)": "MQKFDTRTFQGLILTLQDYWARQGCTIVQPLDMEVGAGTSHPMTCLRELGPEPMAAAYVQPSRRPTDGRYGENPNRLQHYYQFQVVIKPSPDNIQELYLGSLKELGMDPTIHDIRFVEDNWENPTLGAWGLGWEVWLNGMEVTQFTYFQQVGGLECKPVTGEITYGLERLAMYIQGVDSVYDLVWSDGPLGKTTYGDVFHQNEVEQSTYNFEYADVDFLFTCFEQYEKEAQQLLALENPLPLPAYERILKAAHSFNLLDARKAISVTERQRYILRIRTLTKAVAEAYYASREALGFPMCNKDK", "T1 sequence (P00961 whole entry, further chain)": "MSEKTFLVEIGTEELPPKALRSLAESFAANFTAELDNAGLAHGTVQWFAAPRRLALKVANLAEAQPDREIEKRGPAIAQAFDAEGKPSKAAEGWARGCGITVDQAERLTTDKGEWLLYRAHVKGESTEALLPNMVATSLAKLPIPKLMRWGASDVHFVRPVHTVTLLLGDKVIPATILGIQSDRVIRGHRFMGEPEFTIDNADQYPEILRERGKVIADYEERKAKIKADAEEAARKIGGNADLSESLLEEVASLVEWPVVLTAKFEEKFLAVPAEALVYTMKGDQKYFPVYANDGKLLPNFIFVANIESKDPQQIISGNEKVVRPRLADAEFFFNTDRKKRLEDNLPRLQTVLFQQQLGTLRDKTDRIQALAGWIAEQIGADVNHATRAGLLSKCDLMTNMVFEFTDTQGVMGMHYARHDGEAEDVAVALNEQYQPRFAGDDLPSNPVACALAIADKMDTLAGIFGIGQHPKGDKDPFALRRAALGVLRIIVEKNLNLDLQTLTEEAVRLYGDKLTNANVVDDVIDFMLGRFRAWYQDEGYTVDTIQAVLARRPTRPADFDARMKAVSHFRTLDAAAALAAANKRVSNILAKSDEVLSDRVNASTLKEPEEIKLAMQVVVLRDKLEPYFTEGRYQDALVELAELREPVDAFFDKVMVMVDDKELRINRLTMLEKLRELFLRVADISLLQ", "conditions": "for krev (apparent rate of deacylation): deacylation of aminoacyl-tRNA, GlyRS 2 μM, 25° C.", "experimental": "Deacylation assays. Large scale (200 μL) aminoacylation reactions were initiated using the conditions described above (iv). The reactions were allowed to proceed for 1 h at 37° C., after which each reaction mixture was phenol/chloroform extracted. In each case, the aminoacylated tRNA product was ethanol precipitated, and the buffer was exchanged using a micro Bio-Spin 6 column (BioRad) following the procedure specified by the manufacturer and 100 mM HEPES (pH 8.0) containing 100 mM KCl. The precise extent of aminoacylation was calculated using the procedure described above; the 2 μM concentration corresponds to total aminoacylated tRNA. Assays were performed at 25° C. in a 50 μL reaction with 2 μM [^32P]-aminoacyl-tRNA in 100 mM HEPES (pH 7.0) containing 100 mM KCl and 15 mM MgCl2."}, "E. coli GlyRS [3]": {"target": "T1, E. coli GlyRS", "conditions": "adenylation; for kcat (min^−1) or RSA (^32P-ATP formed min^−1 enzyme μM^−1): 25° C., pH 7.0", "experimental": "Adenylation of α- and β-Amino Acids Catalyzed by E. coli PheRS, GlyRS, MetRS, and GluRS. […] Briefly, assay mixtures (50 μL) assembled at 25° C. contained the requisite α- or β^3-amino acid substrate (between 5 μM and 5 mM) in 100 mM HEPES (pH 7.0) containing 100 mM KCl, 15 mM MgCl2, 2 mM ATP, 0.5 mM NaPPi, and 50 μCi [^32P]-NaPPi). Reactions were initiated upon addition of enzyme (10 nM MetRS, 10 nM PheRS, or 50 nM GlyRS; 100 nM GluRS for reactions with α-Glu or 1.13 μM GluRS for reactions with β^3-Glu), incubated for various times (10 sec to 10 min), and halted by adding a 5 μL reaction aliquot to 100 μL quenching solution (10% charcoal, 0.5% HCl). 50 μL of 200 mM NaPPi in 1.5 N HCl was then added to each quenched reaction to decrease nonspecific binding of pyrophosphate to the charcoal. Each quenched reaction was then filtered through Whatman filter paper (number 3), previously washed with washing solution (200 mM NaPPi in 1 N HCl) using a 96-well BIO-DOT® apparatus (BioRad). Each well of the apparatus was then washed four times with 200 μL aliquots of washing solution (by pipetting washing solution up and down at least 10 times per wash) to minimize nonspecific binding of pyrophosphate to charcoal. Each experimental well was paired with an analogous control well (no-enzyme control) that lacked enzyme; a single membrane contained time points for both α- and β^3-amino acid substrates and all no-enzyme controls. The membrane was allowed to dry and was protected with a sheet of Microseal B adhesive seals (Biorad) prior to exposure to a BAS Storage Phosphor screen. Screens were imaged on a Typhoon 9500FLA biomolecule imager and the signal intensity of each dot was quantified using ImageJ to determine the relative amount of [^32P]-ATP formed as a function of time (Ctime). Each raw value were corrected by subtracting the intensity of the dot corresponding to the appropriate no-enzyme control (Cblank) and the resulting corrected values of Ccorr (representing the relative amounts of ^32P-ATP formed) were plotted as a function of time to determine values of relative ^32P-ATP formed per minute. Those values were divided by the concentration of enzyme used, and the data was plotted as relative specific activity (^32P-ATP formed min^−1×μM^−1 enzyme) and fitted using Prism by performing nonlinear regression using the least squares method and Equation 1 to obtain RSA (relative specific activity) and KM values (Equation 1 and Table 2).\nIn Equation 1, v is the apparent relative specific activity (relative ^32P-ATP formed per minute) obtained at each substrate concentration divided by the enzyme concentration, RSA is the relative specific activity, S is the concentration of substrate, and KM is the Michaelis-Menten constant."}, "E. coli GlyRS [4]": {"target": "T1, E. coli GlyRS", "conditions": "aminoacylation; for kcat: 2 μM tRNA"}, "[5]": {"tested_on": "BL21(DE3) cells expressing P7A7 ribosomes along with WT ribosomes", "assay": "Expression of DHFR in 19/20 minimal media supplemented with amino acid (SDS-PAGE)", "format": "cell-based, E. coli", "conditions": "media supplemented with 1 mM of the amino acid", "description": "(§1) To evaluate the extent of in vivo β^3-amino acid incorporation, BL21 (DE3) cells were co-transformed via electroporation (vide infra) with two plasmids. […] The other plasmid encoded either the WT rrnb sequence (pLK35-rrnb), the 040329 mutant reported by Hecht (pLK35-040329.rrnb), or the P7A7 mutant (pLK35-P7A7.rrnb) identified during the puromycin sensitivity screen described above.\n(§2) ii. β^3-amino acid incorporation. The subsequent protocol for in vivo β^3-amino acid incorporation employed minimal media and was adapted from procedures reported by Tirrell and Cropp (Liu, et al., Bioorg Med Chem Lett, 20:5613 (2010); Mandavi, et al., J Am Chem Soc, 135:2979 (2013)). Briefly, all 5 mL of the co-transformed cells prepared as described above were diluted into 100 mL of LB containing 50 ng/mL of kanamycin and […] of carbenicillin and grown to OD600=1.0, spun down, and then resuspended in 1/10th the original volume of 19/20 minimal media (10.5 g/L M9 salts, 0.1 mM CaCl2, 1 mM MgSO4, 1% glycerol, 100 μM of each amino acid (minus α-Phe), 25 mg/L thiamine, […] carbenicillin, 30 ng/mL kanamycin, 1 mM IPTG) supplemented with 1 mM of α-Phe or a β^3-Phe analog. Cells were grown overnight (18 h) at 37° C. while shaking (200 rpm). The cells were harvested by centrifugation (10 min at 4000×g) and resuspended in lysis buffer (50 mM NaH2PO4, 300 mM NaCl, 10 mM imidazole (pH 8.0)). Lysis was performed by sonication (Branson Sonifier 250) with 5 cycles of 20 s on, 20 s off. Lysed cells were then centrifuged for 20 min at 15000×g. The clarified cell lysate was incubated with Ni-NTA resin (Qiagen) for 1 h while gently rotating at 4° C. The Ni-NTA column was washed with lysis buffer prior to eluting proteins with elution buffer (50 mM NaH2PO4, 300 mM NaCl, 300 mM imidazole (pH 8.0)). Elutions were analyzed with SDS-PAGE to prepare material for in-gel trypsin digestions. Controls included side-by-side growths in (1) unsupplemented 19/20 minimal media, which contains only low levels of α-Phe present (negative control); (2). 19/20 minimal media supplemented with 1 mM α-Phe (positive control) and (3) and 19/20 minimal media supplemented with 1 mM β^3-Gly (negative control; β^3-aa that is not a β^3-Phe analog)."}, "[6]": {"tested_on": "BL21(DE3) cells expressing only WT ribosomes", "assay": "Expression of DHFR in 19/20 minimal media supplemented with amino acid (SDS-PAGE)", "format": "cell-based, E. coli", "conditions": "19/20 minimal media supplemented with 1 mM of the amino acid", "description": "as §1, §2"}, "[7]": {"tested_on": "BL21(DE3) cells expressing 040329 ribosomes along with WT ribosomes", "assay": "Expression of DHFR in 19/20 minimal media supplemented with amino acid (SDS-PAGE)", "format": "cell-based, E. coli", "conditions": "040329 + WT ribosomes, media supplemented with 1 mM of the amino acid", "description": "as §1, §2"}, "[8]": {"tested_on": "DHFR position 128 translated in E. coli BL21 (DE3)", "assay": "Spectral counting (LC-MS/MS of tryptic peptides) of β3-(p-Br)Phe and α-Phe incorporation into DHFR in vivo", "format": "cell-based", "conditions": "cells expressing 040329 ribosomes", "description": "as §1\nas §2, with “19/20 minimal media supplemented with 1 mM α-Phe (positive control) and (3) and 19/20 minimal media supplemented with 1 mM β^3-Gly (negative control; β^3-aa that is not a β^3-Phe analog).” left out"}, "[9]": {"tested_on": "E. coli strains (BL21 (DE3)) with pUC18 rrnb plasmids", "assay": "Screen of erythromycin-resistant library for sensitivity to β3-puromycin (growth inhibition, OD600)", "format": "cell-based", "conditions": "250 μM β^3-puromycin, E. coli with pUC18 plasmid encoding WT rrnb", "experimental": "as §3\nThe 1986 erythromycin-resistant clones identified above were then screened for sensitivity to β^3-puromycin sensitivity as described above, except that 250 μM β^3-puromycin was substituted for erythromycin."}}, "note": "Like-named read-outs stand apart in the source and are kept apart here."}
{"molecule": "CC[C@H]1OC(=O)[C@H](C)[C@@H](O[C@H]2C[C@@](C)(OC)[C@@H](O)[C@H](C)O2)[C@H](C)[C@@H](O[C@@H]2O[C@H](C)C[C@H](N(C)C)[C@H]2O)[C@](C)(O)C[C@@H](C)C(=O)[C@H](C)[C@@H](O)[C@]1(C)O", "note": "[erythromycin]", "values": [{"measurement": "growth inhibition", "setting": "[1]", "value": "full growth inhibition"}]}
{"molecule": "NCC(=O)O", "note": "[α-Gly, Glycine]", "values": [{"measurement": "krev (apparent rate of deacylation)", "setting": "E. coli GlyRS [2]", "value": "0.21 ± 0.08", "unit": "min⁻¹"}, {"measurement": "Ratio (α/β) of krev", "setting": "E. coli GlyRS [2]; deacylation, GlyRS", "value": "0.3 ± 0.1"}, {"measurement": "Km", "setting": "E. coli GlyRS [3]", "value": "9.8 ± 3.5", "unit": "µM"}, {"measurement": "Ratio (α-/β-) of KM", "setting": "E. coli GlyRS [3]", "value": "0.14 ± 0.11"}, {"measurement": "Ratio (α-/β-) of RSA", "setting": "E. coli GlyRS [3]", "value": "1.14 ± 0.24"}, {"measurement": "Ratio (α-/β-) of kcat/KM", "setting": "E. coli GlyRS [3]", "value": "7.97 ± 6.46"}, {"measurement": "kcat (min^−1) or RSA (^32P-ATP formed min^−1 enzyme μM^−1)", "setting": "E. coli GlyRS [3]", "value": "166.8 ± 12.8 ^32P-ATP formed min^−1 enzyme μM^−1"}, {"measurement": "Km", "setting": "E. coli GlyRS [4]", "value": "13.4 ± 4.7", "unit": "µM"}, {"measurement": "Ratio (α/β) of KM", "setting": "E. coli GlyRS [4]", "value": "1.2 ± 1.00"}, {"measurement": "Ratio (α/β) of kcat", "setting": "E. coli GlyRS [4]", "value": "1.9 ± 1.0"}, {"measurement": "Ratio (α/β) of kcat/KM", "setting": "E. coli GlyRS [4]", "value": "1.5 ± 0.7"}, {"measurement": "kcat", "setting": "E. coli GlyRS [4]", "value": "5.8 ± 0.5", "unit": "min⁻¹"}]}
{"molecule": "NCCC(=O)O", "note": "[β-Gly, β^3-glycine]", "values": [{"measurement": "krev (apparent rate of deacylation)", "setting": "E. coli GlyRS [2]", "value": "0.71 ± 0.09", "unit": "min⁻¹"}, {"measurement": "Km", "setting": "E. coli GlyRS [3]", "value": "68.4 ± 47.3", "unit": "µM"}, {"measurement": "kcat (min^−1) or RSA (^32P-ATP formed min^−1 enzyme μM^−1)", "setting": "E. coli GlyRS [3]", "value": "146.4 ± 29.2 ^32P-ATP formed min^−1 enzyme μM^−1"}, {"measurement": "level of DHFR", "setting": "[5]", "value": "lower levels"}, {"measurement": "amount of DHFR generated", "setting": "[6]", "value": "trace amounts"}, {"measurement": "level of DHFR", "setting": "[7]", "value": "significant levels"}, {"measurement": "Km", "setting": "E. coli GlyRS [4]", "value": "11.1 ± 2.8", "unit": "µM"}, {"measurement": "kcat", "setting": "E. coli GlyRS [4]", "value": "3.1 ± 0.1", "unit": "min⁻¹"}, {"measurement": "incorporation at position 128 of DHFR (LC-MS/MS)", "setting": "[8]", "value": "no evidence"}]}
{"molecule": "COc1ccc(CC(N)CC(=O)NC2C(CO)OC(n3cnc4c(N(C)C)ncnc43)C2O)cc1", "note": "(stereo not drawn) [β^3-puromycin]", "values": [{"measurement": "growth inhibition", "setting": "[9]", "value": "lack of growth inhibition"}]}
